Data as given in ChEMBL document CHEMBL4422610, “HDAC as onco target: Reviewing the synthetic approaches with SAR study of their inhibitors” (Eur J Med Chem, 2018).

What was measured:
[1] = molecular target: Histone deacetylase 1 (Homo sapiens, UniProt Q13547); experiment: Inhibition of human HDAC1 using fluorogenic HDAC substrate
[2] = molecular target: Histone deacetylase 2 (Homo sapiens, UniProt Q92769); experiment: Inhibition of human HDAC2 using fluorogenic HDAC substrate
[3] = molecular target: Histone deacetylase 4 (Homo sapiens, UniProt P56524); experiment: Inhibition of human HDAC4 using fluorogenic HDAC substrate
Histone deacetylase 4, sequence (P56524 whole entry): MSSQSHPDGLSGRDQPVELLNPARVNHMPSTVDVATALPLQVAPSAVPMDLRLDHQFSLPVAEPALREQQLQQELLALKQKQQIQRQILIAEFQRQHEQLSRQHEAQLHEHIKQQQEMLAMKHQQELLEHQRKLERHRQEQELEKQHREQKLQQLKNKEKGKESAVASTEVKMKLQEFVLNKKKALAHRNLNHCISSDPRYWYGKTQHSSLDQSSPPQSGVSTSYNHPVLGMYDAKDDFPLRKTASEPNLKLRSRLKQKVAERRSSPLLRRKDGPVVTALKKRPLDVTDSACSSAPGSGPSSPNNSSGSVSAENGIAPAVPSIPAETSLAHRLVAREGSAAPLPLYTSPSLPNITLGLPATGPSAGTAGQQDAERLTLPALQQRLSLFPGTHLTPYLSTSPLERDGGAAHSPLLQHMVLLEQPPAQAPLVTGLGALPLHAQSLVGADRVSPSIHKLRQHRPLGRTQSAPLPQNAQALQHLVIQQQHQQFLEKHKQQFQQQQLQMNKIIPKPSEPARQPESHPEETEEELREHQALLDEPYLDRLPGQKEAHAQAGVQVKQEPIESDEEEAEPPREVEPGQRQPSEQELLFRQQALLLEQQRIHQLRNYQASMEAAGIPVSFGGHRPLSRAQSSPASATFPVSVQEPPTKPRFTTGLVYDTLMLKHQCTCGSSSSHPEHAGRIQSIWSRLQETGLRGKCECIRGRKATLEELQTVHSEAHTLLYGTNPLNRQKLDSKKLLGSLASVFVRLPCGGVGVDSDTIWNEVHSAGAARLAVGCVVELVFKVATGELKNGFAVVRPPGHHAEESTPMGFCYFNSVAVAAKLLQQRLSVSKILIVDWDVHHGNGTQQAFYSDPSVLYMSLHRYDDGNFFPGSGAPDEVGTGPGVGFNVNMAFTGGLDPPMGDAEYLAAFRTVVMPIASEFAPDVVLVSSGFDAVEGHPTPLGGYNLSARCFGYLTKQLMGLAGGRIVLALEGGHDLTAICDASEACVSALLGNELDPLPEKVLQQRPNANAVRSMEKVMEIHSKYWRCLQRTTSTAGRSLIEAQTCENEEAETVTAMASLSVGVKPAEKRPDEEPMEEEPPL

[4] = molecular target: Histone deacetylase 5 (Homo sapiens, UniProt Q9UQL6); experiment: Inhibition of human HDAC5 using fluorogenic HDAC substrate
Histone deacetylase 5, sequence (Q9UQL6 whole entry): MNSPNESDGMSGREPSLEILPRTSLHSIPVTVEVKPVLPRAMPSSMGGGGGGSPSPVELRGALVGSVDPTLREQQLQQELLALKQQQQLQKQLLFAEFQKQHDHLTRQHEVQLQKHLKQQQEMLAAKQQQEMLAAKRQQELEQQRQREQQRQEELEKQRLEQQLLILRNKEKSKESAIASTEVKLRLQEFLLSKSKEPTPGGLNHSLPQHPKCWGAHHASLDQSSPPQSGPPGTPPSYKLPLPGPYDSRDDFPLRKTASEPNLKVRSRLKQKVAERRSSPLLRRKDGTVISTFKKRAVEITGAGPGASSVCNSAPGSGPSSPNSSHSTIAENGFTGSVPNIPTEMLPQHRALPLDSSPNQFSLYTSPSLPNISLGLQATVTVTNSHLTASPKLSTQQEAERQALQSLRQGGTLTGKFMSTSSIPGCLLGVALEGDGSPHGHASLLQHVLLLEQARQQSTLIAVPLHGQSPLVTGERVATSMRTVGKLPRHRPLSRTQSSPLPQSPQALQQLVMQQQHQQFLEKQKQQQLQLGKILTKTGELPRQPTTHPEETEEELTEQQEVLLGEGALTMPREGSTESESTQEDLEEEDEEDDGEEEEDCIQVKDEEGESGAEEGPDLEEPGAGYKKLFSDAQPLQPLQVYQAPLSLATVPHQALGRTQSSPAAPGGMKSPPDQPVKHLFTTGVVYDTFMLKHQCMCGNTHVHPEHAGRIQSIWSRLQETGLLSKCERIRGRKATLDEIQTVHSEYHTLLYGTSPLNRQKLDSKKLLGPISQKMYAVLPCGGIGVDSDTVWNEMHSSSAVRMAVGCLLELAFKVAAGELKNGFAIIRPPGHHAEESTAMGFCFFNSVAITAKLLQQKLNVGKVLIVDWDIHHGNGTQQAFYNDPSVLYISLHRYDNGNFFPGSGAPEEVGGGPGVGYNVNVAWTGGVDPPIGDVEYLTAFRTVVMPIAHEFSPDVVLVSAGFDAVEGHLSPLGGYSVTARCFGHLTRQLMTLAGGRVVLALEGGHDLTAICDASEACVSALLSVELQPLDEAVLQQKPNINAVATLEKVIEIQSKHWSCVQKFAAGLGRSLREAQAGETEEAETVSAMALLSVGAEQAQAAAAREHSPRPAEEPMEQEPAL

[5] = molecular target: T1, Histone deacetylase 7 (Homo sapiens, UniProt Q8WUI4); experiment: Inhibition of human HDAC7 using fluorogenic HDAC substrate
T1 sequence (Q8WUI4 whole entry): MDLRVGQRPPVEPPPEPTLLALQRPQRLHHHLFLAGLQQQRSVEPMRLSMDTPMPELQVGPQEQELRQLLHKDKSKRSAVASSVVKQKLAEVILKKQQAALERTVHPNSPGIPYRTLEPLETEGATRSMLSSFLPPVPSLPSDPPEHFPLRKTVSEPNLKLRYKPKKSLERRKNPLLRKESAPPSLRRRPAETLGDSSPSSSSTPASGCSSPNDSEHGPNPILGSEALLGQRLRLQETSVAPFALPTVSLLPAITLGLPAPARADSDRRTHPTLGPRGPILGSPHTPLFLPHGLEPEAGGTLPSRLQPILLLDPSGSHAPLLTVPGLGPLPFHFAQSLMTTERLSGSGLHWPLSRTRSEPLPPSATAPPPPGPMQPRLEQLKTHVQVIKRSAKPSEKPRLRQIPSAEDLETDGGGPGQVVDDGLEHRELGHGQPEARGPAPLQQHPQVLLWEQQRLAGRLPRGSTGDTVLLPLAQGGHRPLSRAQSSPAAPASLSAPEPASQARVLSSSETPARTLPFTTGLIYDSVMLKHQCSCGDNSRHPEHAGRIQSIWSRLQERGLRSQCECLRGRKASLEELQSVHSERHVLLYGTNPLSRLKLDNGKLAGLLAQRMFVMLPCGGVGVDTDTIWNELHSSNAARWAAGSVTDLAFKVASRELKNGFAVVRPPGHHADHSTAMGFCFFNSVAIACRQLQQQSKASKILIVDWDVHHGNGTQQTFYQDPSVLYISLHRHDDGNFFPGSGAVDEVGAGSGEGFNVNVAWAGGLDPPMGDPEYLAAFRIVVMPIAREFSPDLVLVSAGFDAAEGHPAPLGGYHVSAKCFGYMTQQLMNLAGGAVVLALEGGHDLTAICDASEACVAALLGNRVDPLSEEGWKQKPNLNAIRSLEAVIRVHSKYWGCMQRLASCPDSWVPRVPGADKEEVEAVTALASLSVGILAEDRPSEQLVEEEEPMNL

[6] = molecular target: T2, Histone deacetylase 8 (Homo sapiens, UniProt Q9BY41); experiment: Inhibition of human HDAC8 using fluorogenic HDAC substrate
T2 sequence (Q9BY41 whole entry): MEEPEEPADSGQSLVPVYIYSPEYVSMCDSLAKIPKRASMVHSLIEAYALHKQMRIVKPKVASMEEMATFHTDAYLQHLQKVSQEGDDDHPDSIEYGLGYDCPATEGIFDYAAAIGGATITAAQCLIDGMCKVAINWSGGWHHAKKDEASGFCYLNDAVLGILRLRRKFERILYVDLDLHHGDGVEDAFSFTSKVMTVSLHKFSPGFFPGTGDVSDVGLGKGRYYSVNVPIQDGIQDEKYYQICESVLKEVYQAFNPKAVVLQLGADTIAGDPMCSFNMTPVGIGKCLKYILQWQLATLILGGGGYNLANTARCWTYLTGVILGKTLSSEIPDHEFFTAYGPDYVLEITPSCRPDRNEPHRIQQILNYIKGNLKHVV

[7] = molecular target: Histone deacetylase 9 (Homo sapiens, UniProt Q9UKV0); experiment: Inhibition of human HDAC9 using fluorogenic HDAC substrate
Histone deacetylase 9, sequence (Q9UKV0 whole entry): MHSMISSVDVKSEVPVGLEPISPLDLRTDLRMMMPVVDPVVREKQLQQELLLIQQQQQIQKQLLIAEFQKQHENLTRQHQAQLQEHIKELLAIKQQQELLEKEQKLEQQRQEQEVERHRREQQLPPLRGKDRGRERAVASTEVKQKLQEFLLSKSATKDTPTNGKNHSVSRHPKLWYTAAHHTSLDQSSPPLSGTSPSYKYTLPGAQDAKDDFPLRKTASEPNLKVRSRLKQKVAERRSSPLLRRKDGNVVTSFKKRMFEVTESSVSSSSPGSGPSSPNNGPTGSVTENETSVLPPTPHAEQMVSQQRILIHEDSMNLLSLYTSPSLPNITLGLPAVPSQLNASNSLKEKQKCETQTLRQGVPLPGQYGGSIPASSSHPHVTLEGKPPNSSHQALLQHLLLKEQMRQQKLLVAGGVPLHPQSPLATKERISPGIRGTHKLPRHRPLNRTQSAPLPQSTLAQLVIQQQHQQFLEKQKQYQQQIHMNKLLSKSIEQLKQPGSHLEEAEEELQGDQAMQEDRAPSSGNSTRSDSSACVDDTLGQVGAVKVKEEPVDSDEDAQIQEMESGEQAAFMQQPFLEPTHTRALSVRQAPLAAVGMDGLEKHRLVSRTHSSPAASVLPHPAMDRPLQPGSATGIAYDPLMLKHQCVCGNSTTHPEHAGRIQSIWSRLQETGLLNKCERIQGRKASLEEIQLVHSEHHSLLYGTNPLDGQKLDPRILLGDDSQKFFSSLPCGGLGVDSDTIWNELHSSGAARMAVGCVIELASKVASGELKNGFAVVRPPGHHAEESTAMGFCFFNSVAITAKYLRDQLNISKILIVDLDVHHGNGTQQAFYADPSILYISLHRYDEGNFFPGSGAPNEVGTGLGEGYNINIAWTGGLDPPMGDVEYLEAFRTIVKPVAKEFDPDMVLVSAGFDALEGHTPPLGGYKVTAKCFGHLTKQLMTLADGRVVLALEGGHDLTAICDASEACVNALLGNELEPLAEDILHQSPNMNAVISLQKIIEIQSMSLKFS

Histone deacetylase 2, sequence (Q92769 whole entry): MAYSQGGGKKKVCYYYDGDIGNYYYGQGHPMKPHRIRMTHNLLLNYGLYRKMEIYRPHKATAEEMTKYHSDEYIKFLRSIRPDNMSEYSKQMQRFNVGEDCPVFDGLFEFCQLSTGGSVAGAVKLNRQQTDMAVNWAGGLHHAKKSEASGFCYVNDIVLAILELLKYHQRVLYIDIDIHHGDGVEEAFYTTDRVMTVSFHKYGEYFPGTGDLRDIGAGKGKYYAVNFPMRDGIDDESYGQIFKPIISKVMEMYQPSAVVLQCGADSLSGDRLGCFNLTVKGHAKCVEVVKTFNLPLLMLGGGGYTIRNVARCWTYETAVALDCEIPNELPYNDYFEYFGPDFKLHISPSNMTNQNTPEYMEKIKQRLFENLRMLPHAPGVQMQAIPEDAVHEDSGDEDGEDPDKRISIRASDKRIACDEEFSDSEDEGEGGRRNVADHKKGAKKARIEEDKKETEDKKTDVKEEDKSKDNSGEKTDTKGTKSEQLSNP
Histone deacetylase 1, sequence (Q13547 whole entry): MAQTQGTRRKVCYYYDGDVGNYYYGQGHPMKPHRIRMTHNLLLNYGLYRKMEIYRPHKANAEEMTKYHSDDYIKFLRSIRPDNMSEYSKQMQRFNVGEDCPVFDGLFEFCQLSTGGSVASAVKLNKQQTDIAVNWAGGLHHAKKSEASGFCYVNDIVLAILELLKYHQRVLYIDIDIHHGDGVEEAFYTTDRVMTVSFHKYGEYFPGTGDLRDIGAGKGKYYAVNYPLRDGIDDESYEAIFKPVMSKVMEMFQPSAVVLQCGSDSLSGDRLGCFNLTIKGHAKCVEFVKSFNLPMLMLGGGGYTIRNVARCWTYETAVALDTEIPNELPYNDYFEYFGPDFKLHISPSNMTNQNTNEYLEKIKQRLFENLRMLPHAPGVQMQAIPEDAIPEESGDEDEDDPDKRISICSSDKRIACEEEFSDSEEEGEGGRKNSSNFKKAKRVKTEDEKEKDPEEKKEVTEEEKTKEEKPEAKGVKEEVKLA

IC50 [1]: 4.9 µM
IC50 [2]: 26 µM
IC50 [3]: > 30 µM
IC50 [4]: 12 µM
IC50 [5]: > 30 µM
IC50 [6]: 2900 nM
IC50 [7]: 8.9 µM
Compound: O=C(NO)c1ccc(CN2c3ccccc3CC[C@@H]3CCCC[C@H]32)cc1
